≈ marks a conversion by molar mass, not a printed value. Read-outs that look alike come from different tables or passages of the source.
What was measured:
[1] = set-up: method as in earlier work; details: pH 4.5 and 6.8, 24 h, 37 ± 1°C; cited from earlier work
[2] = Thermodynamic solubility, shake-flask saturation method, and dose number; type: physicochemical; details: for solubility: USP buffer solution; for Do (dose number): D = 140 mg, 250 mL
Method: For the solubility study, six buffer solutions (pH 1.2, 3.0, 4.0, 4.5, 6.8 and 7.4) were prepared following the protocols published in the USP XXXVIII, United States Pharmacopoeia, as described above.
Solubility experiments for JM-20 were carried out according to the main regulatory guidelines for biowaivers. The tests were performed at the three recommended pH values (pH 1.2, 4.5 and 6.8) as well as pH […], 4.0 and 7.4 (USP buffer formulations). The shake-flask saturation method proposed by Baka et al. was used in the solubility study and the recommendations of Avdeef et al. were followed to improve the quality of the solubility data. The temperature was regulated at 37 °C. Equilibration times were 6 h stirring + 18 h sedimentation. At the end of equilibration, the two phases were separated by careful decantation. The samples were analyzed with a Thermo Fisher UV-Vis Spectrophotometer (λmax = 262 nm). A linear range of 2–20 μg/mL was obtained (r^2 > 0.99). Once the solubility range was determined, the dose number (Do) was calculated following Equation (1) (1) Do=D/Vo/Cs where D is the highest strength or highest dose administered (mg) according to FDA or EMA criteria, Vo is the volume of water ([…]).

[3] = Dissociation constant (pKa) by UV-spectrophotometric method; type: physicochemical; details: aqueous buffer solutions
Method: The pH measurements were performed using a sensiON™ (PH31) pH meter. Standard solutions of JM-20 ([…] were prepared adding 0.2 mL of the stock solution in 9.8 mL of each buffer. UV-VIS spectra were recorded on a UV-Vis Spectrophotometer (Thermo Fisher GENESYS™ 10S, Shanghai, China) between 200 and 400 nm (2 nm of resolution). All spectrophotometric data were processed in Microsoft Excel (2018).
The experimental pKa was determined using the spectrophotometric method proposed by Salgado et al.. The absorbance spectra of the JM-20 were acquired at different pH levels. The wavelengths of maximum absorbance were determined at each pH. Using a plot of observed absorbance versus pH at these analytical wavelengths (262, 316 and 355 nm), the pKa values were calculated. To determine these points, the linear equations of the two points closest to the crossing at each curve were solved. The whole procedure was carried out in triplicate and at room temperature (23 ± 2 °C).

[4] = target: T1, P-glycoprotein transporter (MDR1) (Homo sapiens, UniProt P08183); assay: P-glycoprotein substrate assessment (B-A permeability MDCK-MDR1 vs MDCK); type: in vitro ADME; details: B-A permeability higher in MDCK-MDR1 than in MDCK (p < 0.05)
T1 construct: expressed in transfected cells; host or cells: MDCK-MDR1 (transfected clone of Madin-Darby Canine Kidney cells)
Method: (§1) MDCK (Madin–Darby Canine Kidney) cells, their transfected clone MDCK-MDR1, and Caco-2 cells were grown in the modified Dulbecco Eagle medium added with L-glutamine, fetal bovine serum and penicillin−streptomycin. The number of cells seeded in transwells with a surface area of 4.2 cm^2 depended on the cell line: 250,000 cells/cm^2 for MDCK and Caco-2 and 150,000 cells/cm^2 for MDCK-MDR1. Experiments were performed between 7 and 9 days for MDCK and MDCK-MDR1 and between 19 and 21 for Caco-2 cells after seeding. Prior to drug placement, cell monolayer integrity was assessed by measuring transepithelial electrical resistance (TEER). Transport studies were performed on an orbital shaker at 37 °C and 50 rpm. Four samples of 200 μL were taken from the receptor side at 0, 15, 30, 60 and 90 min, and two samples from the donor compartment at the beginning and end of the experiment. A standard experiment was performed with the same buffer for the apical and basolateral compartments in the apical to basolateral (A-B) and basolateral to apical (B-A) directions. The drug concentration was 100 μM in all experiments and samples were analyzed immediately by HPLC. The retention time was 2.3 min at maximum wavelengths (λmax = 260 nm). […] The lower limit of quantitation of JM-20 was adequate to interpolate the values obtained in the samples. […]

[5] = set-up: method as in product owner (technical report); details: ref product owner (technical report); cited from earlier work
[6] = Apparent permeability across MDCK monolayers; type: in vitro ADME, Canine; details: dog, 37 °C, stirring at 50 rpm
Method: as §1

T1 sequence (P08183 whole entry): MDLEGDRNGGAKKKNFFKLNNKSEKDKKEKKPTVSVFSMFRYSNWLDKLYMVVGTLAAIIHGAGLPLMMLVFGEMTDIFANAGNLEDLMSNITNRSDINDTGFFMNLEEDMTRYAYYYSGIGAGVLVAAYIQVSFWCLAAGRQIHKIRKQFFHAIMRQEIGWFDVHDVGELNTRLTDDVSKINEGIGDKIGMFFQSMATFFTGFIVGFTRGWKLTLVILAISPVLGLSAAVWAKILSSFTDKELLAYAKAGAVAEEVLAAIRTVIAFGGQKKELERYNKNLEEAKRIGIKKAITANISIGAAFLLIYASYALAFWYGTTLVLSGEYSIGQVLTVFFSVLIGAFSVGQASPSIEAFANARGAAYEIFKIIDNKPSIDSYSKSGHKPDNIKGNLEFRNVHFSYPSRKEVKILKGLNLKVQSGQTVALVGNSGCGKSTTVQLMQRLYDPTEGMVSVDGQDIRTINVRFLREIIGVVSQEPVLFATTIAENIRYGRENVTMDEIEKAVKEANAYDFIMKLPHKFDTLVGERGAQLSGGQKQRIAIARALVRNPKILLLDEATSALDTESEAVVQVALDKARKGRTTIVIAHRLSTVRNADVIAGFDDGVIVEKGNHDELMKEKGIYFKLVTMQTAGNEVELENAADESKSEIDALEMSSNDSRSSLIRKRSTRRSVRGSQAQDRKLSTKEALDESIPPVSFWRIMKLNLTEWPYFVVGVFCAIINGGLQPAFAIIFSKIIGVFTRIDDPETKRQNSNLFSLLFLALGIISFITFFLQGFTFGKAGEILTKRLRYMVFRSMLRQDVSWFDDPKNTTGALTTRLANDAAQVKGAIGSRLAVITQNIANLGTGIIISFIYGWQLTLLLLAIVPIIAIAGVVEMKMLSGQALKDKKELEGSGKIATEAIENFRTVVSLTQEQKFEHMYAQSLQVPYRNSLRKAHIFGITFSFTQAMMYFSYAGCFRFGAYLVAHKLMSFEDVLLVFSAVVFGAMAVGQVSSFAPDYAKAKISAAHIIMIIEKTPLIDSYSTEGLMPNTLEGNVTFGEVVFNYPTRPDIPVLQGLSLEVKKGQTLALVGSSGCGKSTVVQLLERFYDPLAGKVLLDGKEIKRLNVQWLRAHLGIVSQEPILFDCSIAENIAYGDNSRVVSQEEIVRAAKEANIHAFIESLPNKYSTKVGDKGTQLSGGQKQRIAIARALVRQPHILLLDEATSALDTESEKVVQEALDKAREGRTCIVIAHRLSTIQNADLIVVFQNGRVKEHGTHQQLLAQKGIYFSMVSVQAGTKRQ

solubility ([2]; aqueous buffer, thermodynamic from solid, buffer pH 1.2, 37 °C, shake-flask, read-out: Solubility ± SD): 9.18 ± 0.16 µg/mL (≈ 22.7 µM)
solubility ([2]; aqueous buffer, thermodynamic from solid, buffer pH 3.5, 37 °C, shake-flask, read-out: Solubility ± SD): 12.7 ± 0.83 µg/mL (≈ 31.5 µM)
solubility ([2]; aqueous buffer, thermodynamic from solid, buffer pH 4.0, 37 °C, shake-flask, read-out: Solubility ± SD): 25.4 ± 0.66 µg/mL (≈ 62.8 µM)
solubility ([2]; aqueous buffer, thermodynamic from solid, buffer pH 4.5, 37 °C, shake-flask, read-out: Solubility ± SD): 30.8 ± 1.29 µg/mL (≈ 76.3 µM)
solubility ([2]; aqueous buffer, thermodynamic from solid, buffer pH 6.8, 37 °C, shake-flask, read-out: Solubility ± SD): 11.3 ± 0.69 µg/mL (≈ 27.9 µM)
solubility ([2]; aqueous buffer, thermodynamic from solid, buffer pH 7.4, 37 °C, shake-flask, read-out: Solubility ± SD): 12.6 ± 0.36 µg/mL (≈ 31.3 µM)
solubility ([2]; pH 1.2, acidic pH, read-out: Solubility at acidic pH (abstract)): 9.18 ± 0.16 µg/mL (≈ 22.7 µM)
Dose number (Do) ([2]; at the different pH values, dose 140 mg): greater than 1
D0 (dose number) ([2]; calculated with the lowest aqueous solubility): 61
Do (dose number) ([2]; pH 1.2): 61.00
Do (dose number) ([2]; pH 3.5): 44.03
Do (dose number) ([2]; pH 4.0): 22.06
Do (dose number) ([2]; pH 4.5): 18.16
Do (dose number) ([2]; pH 6.8): 49.56
Do (dose number) ([2]; pH 7.4): 44.30
pKa ([3]; pH 2 to 12, UV-spectrophotometric, 23 °C, ionic strength approximately 0.1 M, read-out: pKa1 (base)): 5.48 ± 0.19
pKa ([3]; pH 2 to 12, UV-spectrophotometric, 23 °C, ionic strength approximately 0.1 M, read-out: pKa2 (acid)): 10.5 ± 0.17
pKa ([3]; pH 2 to 12, measured pKa transformed to 37 °C (estimated), read-out: pKa1 at 37 °C): 5.54
pKa ([3]; pH 2 to 12, measured pKa transformed to 37 °C (estimated), read-out: pKa2 at 37 °C): 10.3
Papp A→B at 90 min, 100 µM [6]: 24.6 ± 1.1 ×10⁻⁶ cm/s
Papp B→A at 90 min, 100 µM [6]: 2.8 ± 7.1 ×10⁻⁶ cm/s
Compound: CCOC(=O)C1=C(C)NC2=C(C=Nc3ccccc3N2)C1c1ccccc1[N+](=O)[O-] (stereo not drawn) [JM-20, 3-ethoxycarbonyl-2-methyl-4-(2-nitrophenyl)-4,11-dihydro-1H-pyrido [2,3-b][1,5] benzodiazepine]
Qualitative stability in aqueous medium [1]: some degradation
Substrate of the P-glycoprotein transporter (MDR1) [4]: substrate of the P-glycoprotein transporter (MDR1)
Stability in DMSO and absolute ethanol [5]: stable
